In patent US11673866B2, “Estrogen receptor beta ligands for the prevention and treatment of multiple sclerosis (MS) and other demyelinating, inflammatory and neurodegenerative diseases” (The Board of Trustees of the University of Illinois, priority 2018, dated 2023):
Entries after “also recorded” stand apart in the source; their conditions may differ.

Legend:
ERα = molecular target: T1, ERα (Homo sapiens, UniProt P03372); experiment: Relative binding affinity (RBA) to estrogen receptor alpha, radiometric measurement; conditions: relative value to 100% for E2 by radiometric measurement
T1 sequence (P03372 1-595): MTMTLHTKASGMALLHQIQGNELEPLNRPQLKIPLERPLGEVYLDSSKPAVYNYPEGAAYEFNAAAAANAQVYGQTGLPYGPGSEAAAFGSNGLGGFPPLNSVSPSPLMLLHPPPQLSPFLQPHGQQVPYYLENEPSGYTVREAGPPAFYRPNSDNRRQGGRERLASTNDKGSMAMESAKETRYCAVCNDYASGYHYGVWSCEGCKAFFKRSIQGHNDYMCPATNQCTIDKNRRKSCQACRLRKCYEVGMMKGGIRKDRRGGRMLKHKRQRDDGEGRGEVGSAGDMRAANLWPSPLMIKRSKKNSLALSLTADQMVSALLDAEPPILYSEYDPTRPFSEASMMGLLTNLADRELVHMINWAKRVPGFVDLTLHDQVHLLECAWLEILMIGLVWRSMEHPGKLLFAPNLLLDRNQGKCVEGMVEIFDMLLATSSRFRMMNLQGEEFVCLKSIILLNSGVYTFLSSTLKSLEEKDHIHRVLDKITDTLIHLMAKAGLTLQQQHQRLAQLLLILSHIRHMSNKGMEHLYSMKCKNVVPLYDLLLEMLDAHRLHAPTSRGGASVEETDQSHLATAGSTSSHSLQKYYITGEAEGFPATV

ERβ = ERβ (Homo sapiens, UniProt Q92731); experiment: Relative binding affinity (RBA) to estrogen receptor beta, radiometric measurement; conditions: for β/α Ratio: ratio of RBA ERβ to RBA ERα; for RBA ERβ: relative value to 100% for E2 by radiometric measurement
[1] = test system: primary oligodendrocyte and oligodendrocyte precursor cells (OL/OPCs); experiment: Primary OPC culture differentiation (MBP immunostaining, DAPI); type: cell-based, mouse; parameters: key to %MBP+/DAPI: *: The level of production of myelin basic protein (MBP); ---: reduction of MBP; conditions: for MBP+/DAPI ratio (OPC differentiation): FIG. 10B; for %MBP+/DAPI: level of production of myelin basic protein in primary OPC/OL cultures
Experimental: Primary OPC Cultures: Primary OPCs, isolated from postnatal day P1 C57BL/6 male and female mouse cortices as described previously, were treated with 10 nM ligands in differentiating medium for 3 days (Tiwari-Woodruff et al., 2001; Tiwari-Woodruff et al., 2006). Primary OPC were cultured into 8-well chamber slides (three wells per condition, 2.5×10^5 cells/well) for three days to attach and […] in differentiating media (consisting of DMEM-F12 with triiodothyronine- and thyroxine-containing Sato as well as penicillin, streptomycin, insulin, N-acetyl-L-cysteine, forskolin, ciliary neurotrophic factor, neurotrophin-3, and platelet-derived growth factor receptor α (Tiwari-Woodruff et al., 2001)). A positive control (IndCl), a negative control (Vehicle consisting of the media+EtOH mixture used to dissolve IndCl), and a normal control (differentiating media alone) were used for comparison. At the end of the treatment period, cells were fixed, stained by immunocytochemistry (primary antibody polyclonal chicken myelin basic protein (MBP, Millipore AB9348), shown in green and co-stained with nuclear stain—DAPI shown in blue), and imaged with an Olympus BX61 confocal microscope (Olympus America Inc., Center Valley, Pa.) at 10× magnification (3 images per well). Cells were counted using the ImageJ multipoint tool, and counts were then divided by the image area (mm^2). Average cell density for each condition was then divided by the normal condition cell density. Analysis of OL differentiation consisted of counting the number of MBP+ cells and process extensions that were longer than the respective cell-body diameter and tracking the number of highly branched MBP+ cells (with three or more processes) (Monnerie et al., 2017). Statistics were performed using GraphPad Prism 6 Software (La Jolla, Calif.). One-way ANOVA with Tukey's posthoc test for multiple comparisons was used to generate p-values, and data are presented as mean SEM (with α≤0.05).
Primary OPC cultures were used as a convenient cell-based assay to characterize the proliferation and/or differentiation effects of the new IndCl analogues and to select those most suitable for more extensive studies to be done in comparison with the parental ligand, IndCl. 48 hours after plating OPCs, one of seven IndCl analogues (FIG. 1A) was added to differentiating media at a concentration of 10 nM (De Angelis et al., 2005; Saijo et al., 2011). OPCs were allowed to differentiate for 3 days in the presence of IndCl or analogues, at which point they were fixed, immunostained for OPC/OL markers, and quantified. […] The total number of cells in culture was not altered by any treatment (FIGS. 1B and 1D).

Chain of ERβ (Q92731 whole entry, species assumed): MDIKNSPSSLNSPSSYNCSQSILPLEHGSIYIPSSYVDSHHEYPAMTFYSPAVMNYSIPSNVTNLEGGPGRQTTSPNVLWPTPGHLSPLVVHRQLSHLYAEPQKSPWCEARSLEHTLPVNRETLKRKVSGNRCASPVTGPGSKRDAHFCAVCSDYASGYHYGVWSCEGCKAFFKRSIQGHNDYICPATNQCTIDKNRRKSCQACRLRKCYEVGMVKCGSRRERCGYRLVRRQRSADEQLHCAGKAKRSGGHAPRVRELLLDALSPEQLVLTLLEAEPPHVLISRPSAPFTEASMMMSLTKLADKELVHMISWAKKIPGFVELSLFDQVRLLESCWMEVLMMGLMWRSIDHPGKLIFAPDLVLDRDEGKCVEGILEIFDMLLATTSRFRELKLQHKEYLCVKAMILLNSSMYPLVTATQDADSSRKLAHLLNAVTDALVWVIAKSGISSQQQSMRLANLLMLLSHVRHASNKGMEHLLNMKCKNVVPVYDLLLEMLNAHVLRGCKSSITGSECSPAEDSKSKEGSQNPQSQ

RBA ERα (ERα) [%] | β/α Ratio (ERβ) | RBA ERβ (ERβ) [%] | Structure (SMILES) | MBP+/DAPI ratio (OPC differentiation) [1] | %MBP+/DAPI [1] | number of MBP+ OLs (differentiated OLs) ([1]; 10 nM, 3 days in differentiating media, vs vehicle-treated cells) | branched OLs / complex branching cells ([1]; 10 nM, vs vehicle-treated cells)
0.81 | 19.9 | 16.12 | Oc1ccc(-n2nc3ccc(O)cc3c2Br)c(Cl)c1 [IndBr-o-Cl, 3-bromo-2-(2-chloro-4-hydroxyphenyl)-2H-indazol-5-ol] |  |  |  | 
0.34 | 2.5 | 0.86 | C=CCc1c2cc(O)ccc2nn1-c1ccc(O)cc1Br [Ind-allyl-o-Br, 3-allyl-2-(2-bromo-4-hydroxyphenyl)-2H-indazol-5-ol] |  |  |  | 
0.19 | 52.4 | 9.79 | Oc1ccc(-n2nc3ccc(O)cc3c2Cl)c(F)c1 [IndCl-o-F, 3-chloro-2-(2-fluoro-4-hydroxyphenyl)-2H-indazol-5-ol] |  |  |  | 
0.27 | 2.3 | 0.61 | Oc1ccc(-n2nc3ccc(O)cc3c2F)c(I)c1 [IndF-o-I, 3-fluoro-2-(4-hydroxy-2-iodophenyl)-2H-indazol-5-ol] |  |  |  | 
0.54 | 14.9 | 8.04 | C=Cc1c2cc(O)ccc2nn1-c1ccc(O)cc1Br [Ind-vinyl-o-Br, 2-(2-bromo-4-hydroxyphenyl)-3-vinyl-2H-indazol-5-ol] |  |  |  | 
1.25 | 5.3 | 6.64 | Oc1ccc(-n2nc3ccc(O)cc3c2I)c(Br)c1 [IndI-o-Br, 2-(2-bromo-4-hydroxyphenyl)-3-iodo-2H-indazol-5-ol] |  |  |  | 
0.27 | 4.0 | 1.09 | Oc1ccc(-n2nc3ccc(O)cc3c2F)c(Cl)c1 [IndF-o-Cl, 2-(2-chloro-4-hydroxyphenyl)-3-fluoro-2H-indazol-5-ol] |  |  |  | 
0.08 | 7.8 | 0.63 | Oc1ccc(-c2c3cc(O)ccc3nn2-c2ccc(O)cc2)cc1 [Ind-Ph-p-OH, 4,4′-(5-hydroxy-2H-indazole-2,3-diyl)diphenol] |  |  |  | 
0.13 | 18.0 | 2.34 | OCc1cc(O)ccc1-n1nc2ccc(O)cc2c1Cl [IndCl-o-CH2OH, 3-chloro-2-(4-hydroxy-2-(hydroxymethyl)phenyl)-2H-indazol-5-ol] |  |  |  | 
0.062 | 48.2 | 2.99 | Oc1ccc(-n2nc3ccc(O)cc3c2Cl)c(O)c1 [IndCl-o-OH, 4-(3-chloro-5-hydroxy-2H-indazol-2-yl)benzene-1,3-diol] | greatest increase |  |  | 
2.84 | 3.7 | 10.39 | Oc1ccc(-n2nc3ccc(O)cc3c2Cl)c(C(F)(F)F)c1 [IndCl-o-CF3, 3-chloro-2-(4-hydroxy-2-(trifluoromethyl)phenyl)-2H-indazol-5-ol] |  |  |  | 
0.03 | 2.0 | 0.06 | Oc1cc(F)c(-n2cc3cc(O)ccc3n2)c(F)c1 [IndH-o-F2, 2-(2,6-difluoro-4-hydroxyphenyl)-2H-indazol-5-ol] |  |  |  | 
0.47 | 10.5 | 4.93 | Oc1ccc(-n2nc3ccc(O)cc3c2I)c(Cl)c1 [IndI-o-Cl, 2-(2-chloro-4-hydroxyphenyl)-3-iodo-2H-indazol-5-ol] |  |  |  | 
0.05 | 15.7 | 0.77 | N#Cc1cc(O)ccc1-n1nc2ccc(O)cc2c1Cl [IndCl-o-CN, 2-(3-chloro-5-hydroxy-2H-indazol-2-yl)-5-hydroxybenzonitrile] |  | --- |  | 
0.11 | 21.1 | 2.3 | Oc1cc(Cl)c(-n2nc3ccc(O)c(Cl)c3c2Cl)c(Cl)c1 [IndCl-o-Cl2-4-Cl, 3,4-dichloro-2-(2,6-dichloro-4-hydroxyphenyl)-2H-indazol-5-ol] |  |  |  | 
0.076 | 3.6 | 0.28 | Oc1cc(F)c(-n2nc3ccc(O)c(Cl)c3c2Cl)c(F)c1 [IndCl-o-F2-4-Cl, 3,4-dichloro-2-(2,6-difluoro-4-hydroxyphenyl)-2H-indazol-5-ol] | greatest increase |  |  | 
0.34 | 15.7 | 5.38 | Oc1ccc(-n2nc3ccc(O)cc3c2Cl)c(I)c1 [IndCl-o-I, 2-(2-iodo-4-hydroxyphenyl)-3-chloro-2H-indazol-5-ol] |  |  | significant increase; also recorded: significantly increased | increase in the percentage of branched OLs
0.13 | 5.8 | 0.74 | Cc1cc(-n2nc3ccc(O)cc3c2Cl)ccc1O [IndCl-m-Me, 3-chloro-2-(4-hydroxy-3-methylphenyl)-2H-indazol-5-ol] |  |  |  | 
0.14 | 75.7 | 10.5 | Oc1ccc2nn(-c3ccc(O)c(F)c3)c(Cl)c2c1 [IndCl-m-F, 3-chloro-2-(3-fluoro-4-hydroxyphenyl)-2H-indazol-5-ol] |  |  |  | 
0.03 | 10.3 | 0.31 | Oc1ccc(-n2nc3ccc(O)cc3c2C2SCCS2)cc1 [Ind-Thiolane, 3-(1,3-dithiolan-2-yl)-2-(4-hydroxyphenyl)-2H-indazol-5-ol] |  |  |  | 
0.088 | 9.3 | 0.82 | Oc1cc(Cl)c(-n2cc3cc(O)ccc3n2)c(Cl)c1 [IndH-o-Cl2, 2-(2,6-dichloro-4-hydroxyphenyl)-2H-indazol-5-ol] |  |  |  | 
0.47 | 17.9 | 8.31 | Oc1ccc(-n2nc3ccc(O)cc3c2Cl)c(Br)c1 [IndCl-o-Br, 2-(2-bromo-4-hydroxyphenyl)-3-chloro-2H-indazol-5-ol] |  | * |  | 
1.40 | 4.2 | 5.84 | Oc1ccc(-n2nc3ccc(O)cc3c2Br)c(Br)c1 [IndBr-o-Br, 3-bromo-2-(2-bromo-4-hydroxyphenyl)-2H-indazol-5-ol] |  | * |  | 
1.38 | 7.0 | 9.64 | Cc1cc(O)ccc1-n1nc2ccc(O)cc2c1I [IndI-o-Me, 2-(4-hydroxy-2-methylphenyl)-3-iodo-2H-indazol-5-ol] |  |  |  | 
0.04 | 35.8 | 1.43 | OCc1c2cc(O)ccc2nn1-c1ccc(O)cc1 [Ind-CH2OH, 3-(hydroxymethyl)-2-(4-hydroxyphenyl)-2H-indazol-5-ol] |  |  |  | 
0.37 | 6.7 | 2.5 | Oc1ccc(-n2nc3ccc(O)cc3c2I)c(I)c1 [IndI-o-I, 2-(4-hydroxy-2-iodophenyl)-3-iodo-2H-indazol-5-ol] |  |  |  | 
0.49 | 12.8 | 6.28 | Oc1ccc(-n2nc3ccc(O)cc3c2Br)c(I)c1 [IndBr-o-I, 3-bromo-2-(4-hydroxy-2-iodophenyl)-2H-indazol-5-ol] |  |  |  | 
0.18 | 13.0 | 2.34 | Oc1ccc(-n2nc3ccc(O)cc3c2Cl)c(C2SCCS2)c1 [IndCl-o-Thiolane, 2-(2-(1,3-dithiolan-2-yl)-4-hydroxyphenyl)-3-chloro-2H-indazol-5-ol] |  |  |  | 
